Patent US20240226160A9, “ACTIVITY-INDUCIBLE FUSION PROTEINS HAVING A HEAT SHOCK PROTEIN 90 BINDING DOMAIN” (Seattle Children's Hospital d/b/a Seattle Children's …, priority 2021, published 2024)
Residue numbers refer to the chain shown, from its start.

Assays:
huCD19CAR-EBD(4OHT) = assay: Anti-CD3zeta western blot with band quantification; assay type: cell-based; conditions: 500 nM, 24 hr incubation, vs 0 nM
Method: FIG. 26. Anti-zeta Western Blot evaluating huCD19CAR-EBD(4OHT) with differing Glycine linkers in 0 nM and 500 nM of 4OHT OR (Z)-endoxifen. Protein processing and expression of huCD19CAR-EBD with different linkers between the CAR and the EBD was evaluated using an anti-CD3zeta western blot analysis. Whole cell lysates were made for the huCD19CAR-EBD(4OHT) T cell lines with either a 1Glycline, 2Glycine or 3Glycine linker between the CAR and EBD domains in 0 nM and 500 nM 4OHT/(Z)-endoxifen drug conditions following a 24 hr incubation. Whole cell lysates were also made for the Mock T cell line and the CAR alone T cell line under the same conditions. The western blot was imaged and analyzed on the LiCOR Odyssey. Additionally, protein band quantification was performed using the LiCOR Odyssey. CAR zeta chain expression is observed for all CAR-1/2/3Glylinker-EBD lines in both the no drug and maximum drug conditions.

EBD(ES8) = target: T1, EBD(ES8) (Homo sapiens, UniProt P03372, E353A); assay: CD107a activation assay (flow cytometry MFI); assay type: cell-based; conditions: for CD107a response of EBD(ES8) to drug: 24 hr preconditioning, 4 hours co-culture
T1 sequence (P03372 282-595 E353A): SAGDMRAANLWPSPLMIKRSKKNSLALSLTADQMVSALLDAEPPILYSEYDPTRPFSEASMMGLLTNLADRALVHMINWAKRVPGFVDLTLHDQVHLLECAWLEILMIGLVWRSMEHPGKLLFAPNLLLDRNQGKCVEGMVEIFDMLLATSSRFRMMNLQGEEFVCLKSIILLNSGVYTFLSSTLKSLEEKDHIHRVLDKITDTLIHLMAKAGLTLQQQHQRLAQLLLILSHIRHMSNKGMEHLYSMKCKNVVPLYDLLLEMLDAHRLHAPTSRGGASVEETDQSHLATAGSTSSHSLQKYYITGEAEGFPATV
Method: FIGS. 28A, 28B. (28A) CD107a activation assay: huCD19CAR-EBD(4OHT) linker variants vs K562+CD19t. […] To achieve this, T cells (including mock and constitutively active CAR controls) were preconditioned with target drug concentration(s) for 24 hrs, then exposed to a tumor line expressing their target antigen (CD19 or B7H3). After 4 hours of co-culture with target tumors at various drug concentrations, the T cells were assessed for a) activation and degranulation by staining for CD107a and b) cell surface CAR-EBD by staining for human scFv (which works for both B7H3CAR and huCD19CAR), then running on flow cytometry. MFI (median fluorescence intensity) was determined for each stain on each sample under each condition and plotted on a log scale of drug concentration. EC10 and EC90 (effective concentration 10% and 90%) were calculated in Graphpad Prism for CD107a expression and function as estimates for the drug concentration required for each construct to turn “on” or “off”. Positive and negative controls for each CAR are presented in the bar graph. […] EBD(4OHT) responds to 4-OHT and (Z)-endoxifen, but not to CMP8 or ES8. The responsiveness of degranulation to target antigen in the presence of inducer molecule is largely similar between the Gly linker variants. EBD(4OHT) is very sensitive to its intended inducer molecules, beginning to activate (EC10) at single nanomolar concentrations and becoming fully activated (EC90) at double digit nanomolar concentrations. […] Both EBD(CMP8) and EBD(ES8) respond to 4OHT.

B7H3CAR-3Gly-EBD(4OHT) [1] = target: T2, B7H3CAR-3Gly-EBD(4OHT) (Homo sapiens, UniProt P03372, G400V/L544A/M543A); assay: Chromium release assay, specific cell lysis; assay type: cell-based
T2 construct: expressed in transfected cells; T cells by b52 and b55
T2 sequence (P03372 282-595 G400V/M543A/L544A): T1 sequence (P03372 282-595 E353A) with A72E, G119V, M262A, L263A
Method: FIG. 18. […] Specific cell lysis was evaluated using a chromium release assay. […] Following the 4 hr incubation the Perkin Elmer TopCount was used to quantify the amount of Cr51 released into each well as tumor lysis occurred.

B7H3CAR-3Gly-EBD(4OHT) [2] = target: T2, B7H3CAR-3Gly-EBD(4OHT); assay: Meso Scale Diagnostic cytokine release assay; assay type: cell-based; conditions: 24 hr drug culture 0-500 nM, 24 hr co-incubation with tumor lines
Method: FIGS. 19A, 19B. […] (20A and 20B) Cytokine release was evaluated using a Meso Scale Diagnostic assay. […] Following the 24 hr incubation the supernatant from each co-incubation was collected and run on the MESO QuickPlex SQ 120 instrument to ascertain the amount of cytokine released.

B7H3 EBD(CMP8) CAR = target: T3, B7H3 EBD(CMP8) CAR (Homo sapiens, UniProt P03372, G521R/L384M/M421G); assay: Jurkat iSynPro eGFP:ffluc reporter assay (GFP by flow cytometry); assay type: cell-based
T3 construct: expressed in transfected cells; host or cells: clonal Jurkat iSynPro eGFP:ffluc reporter cell line (transduced)
T3 sequence (P03372 282-595 L384M/M421G/G521R): T1 sequence (P03372 282-595 E353A) with A72E, L103M, M140G, G240R
Method: FIG. 11. Design of B7H3 CAR EBD mutant study. […] Jurkat iSynPro lines included cJ10792: Jurkat iSynPro-GFP:ffluc; cJ13093: Jurkat iSynPro-GFP:ffluc+B7H3 CAR; cJ13094: Jurkat iSynPro-GFP:ffluc+B7H3 CAR EBD (4-OHT); and cJ13095: Jurkat iSynPro-GFP:ffluc+B7H3 CAR EBD (CMP8) with a K562 parental target. 4-OHT and CMP8 concentrations of 0 nM, 500 nM and 1000 nM were tested for each cell line.
FIG. 16. Design of activation curve study. The objective of the study was to examine activation curves of CAR EBD Jurkat iSynPro lines in an increasing presence of 4-OHT, (Z)-endoxifen, or CMP8.
FIG. 9 (top) depicts a schematic of Jurkat iSynPro eGFP:ffluc reporter cells. Jurkat iSynPro eGFP:ffluc reporter cells feature a Jurkat cell line lentivirally transduced to stably express a inducible synthetic promoter (iSynPro WO2018213332A1) regulating the expression of an enhanced green fluorescent protein (eGFP) fused to bioluminescent reporter firefly luciferase (ffluc). This line was then clonally selected by limiting dilution. […]
Jurkat iSynPro eGFP:ffluc assays are also depicted in FIG. 9 (bottom). […] At the 24 hr timepoint, cells were collected and evaluated by flow cytometry. Cells were initially stained for CD33 to gate out target cell lines before they were evaluated for GFP expression by positivity and/or mean fluorescence intensity (MFI). […]

[3] = target: T4, B7H3CAR-3Gly-EBD variants (Homo sapiens, UniProt P03372, G521R/L384M/M421G); conditions: B7H3CAR-3Gly-EBD(CMP8) vs K562+mCherry, drug added at 24 hrs
T4 sequence (P03372 282-595 L384M/M421G/G521R): T1 sequence (P03372 282-595 E353A) with A72E, L103M, M140G, G240R
Method: (31A) Incucyte Cytotoxicity Assay: B7H3CAR-3Gly-EBD variants. CD4 and CD8 T cells (mixed at a 1:1 ratio) expressing a either B7H3CAR-3Gly-EBD(4OHT), B7H3CAR-3Gly-EBD(CMP8), or B7H3CAR-3Gly-EBD(ES8) were either preincubated for 24 hrs with 500 nM inducer drug or not preincubated. These T cells were subsequently plated with CAR-target expressing tumor lines (K562, and/or Be2) constitutively expressing mCherry (for detection and quantification). […] Plates were placed inside of an Incucyte and imaged every 3-4 hours for several days. mCherry signal was then quantified and plotted as a function of time. […]
(32A-32C) CD4 and CD8 T cells (mixed at a 1:1 ratio) expressing either B7H3CAR-3Gly-EBD(4OHT), B7H3CAR-3Gly-EBD(CMP8), or B7H3CAR-3Gly-EBD(ES8) (were either preincubated for 24 hrs with 500 nM inducer drug or not preincubated (B7H3CAR-3Gly-EBD(4OHT) received 500 nM 4OHT, B7H3CAR-3Gly-EBD(CMP8) received 500 nM CMP8, B7H3CAR-3Gly-EBD(ES8) received 500 nM ES8). These T cells were subsequently plated with CAR-target expressing tumor lines (K562, and/or Be2) constitutively expressing mCherry (for detection and quantification). Tumors were plated at 10,000 per well, and co-culture was performed at a 4:1 ratio (T cell:tumor cell) with or without the appropriate drug at 500 nM. […]

CC/C(=C(\c1ccc(O)cc1)c1ccc(OCCN(C)C)cc1)c1ccccc1 [4-OHT, 4-hydroxytamoxifen]
increase in CAR-EBD protein expression (zeta chain band quantification) (huCD19CAR-EBD(4OHT)): ~3 fold

O=C1CCC2(Cc3ccc(Cl)cc3)Cc3cc(O)ccc3C2=C1c1ccc(OCCN2CCCCC2)cc1 (centres unmarked) [CMP8]
CD107a response of EBD(ES8) to drug (EBD(ES8)): does not respond to
specific lysis (B7H3CAR-3Gly-EBD(4OHT) [1]; 500 nM): 0%
regulation of CAR activity (specific cell lysis) (B7H3CAR-3Gly-EBD(4OHT) [1]; 24 hr drug culture 0-500 nM, 4 hr co-incubation with Cr-51 tumor line): is not regulated by
regulation of CAR activity (cytokine release) (B7H3CAR-3Gly-EBD(4OHT) [2]): is not regulated by
induction of expression at lowest drug level (B7H3 EBD(CMP8) CAR; 0.49 nM of drug): still observed
response of EBD(CMP8) mutant (GFP induction) (B7H3 EBD(CMP8) CAR; K562 target, 24 hr): response
change in tumor growth kinetics once activated [3]: immediate

C[C@]12CC[C@@H]3c4ccc(/C=C/C(=O)O)cc4CC[C@H]3[C@@H]1CC[C@@H]2O [ES8]
CD107a response of EBD(ES8) to drug (EBD(ES8)): very sensitive to induction
maximum magnitude of induction (EBD(ES8); CD107a): less than its induction with 4OHT

CC/C(=C(\c1ccc(O)cc1)c1ccc(OCCNC)cc1)c1ccccc1 [(Z)-endoxifen]
increase in CAR-EBD protein expression (zeta chain band quantification) (huCD19CAR-EBD(4OHT)): ~3 fold
